# Results published in patent US12491156B2, “Carrier particles for dry powder formulations for inhalation” (Chiesi Farmaceutici S.p.A., priority 2019, dated 2025).
# Test: Aerosol performances by Next Generation Impactor (NGI)
# Format: physicochemical
# Experimental: The evaluation of the aerosol performances was carried out using the Next Generation Impactor (NGI) according to the conditions reported in the European Pharmacopeia 8.5th Ed 2015, par 2.9.18, pages 309-320. After aerosolization of 3 doses from the inhaler device, the NGI apparatus was disassembled and the amounts of drug deposited in the stages were recovered by washing with a 50:50 v/v water:acetonitrile mixture and then quantified by High-Performance Liquid Chromatography (HPLC). The following parameters, were calculated: i) the delivered dose which is the amount of drug delivered from the device recovered in the all parts of impactor; ii) the fine particle mass (FPM) which is the amount of delivered dose having a particle size equal to or lower than 5.0 micron; iii) the fine particle fraction (FPF) which is the ratio between the fine particle mass and the delivered dose; iv) the MMAD. The evaluation of the aerosol performances was performed as reported in Example 1. […]
# [1] = Example 4 formulation, Multidose DPI
# [2] = Example 4 formulation, Single Dose DPI (RS01)
# [3] = Example 5 formulation, 1 mg single dose, single dose DPI RS01
# [4] = Example 5 formulation, 4 mg single dose, single dose DPI RS01
Compound,"Delivered Dose (Example 1 formulation (3000 μg BDP per 10 mg shot), multidose DPI of WO 2016/000983, NGI, 3 doses) [mg]","MMAD (Example 1 formulation, multidose DPI) [μm]","Fine Particle Mass (Example 1 formulation, multidose DPI, particle size equal to or lower than 5.0 micron) [mg]","Fine Particle Fraction (Example 1 formulation, multidose DPI, ratio fine particle mass/delivered dose) [%]",Fine Particle Fraction [1] [%],Fine Particle Mass [1] [mg],MMAD [1] [μm],"Delivered Dose (Example 4 formulation, Multidose DPI (WO 2016/000983)) [mg]",Fine Particle Fraction [2] [%],Fine Particle Mass [2] [mg],MMAD [2] [μm],"Delivered Dose (Example 4 formulation, Single Dose DPI (RS01 of Plastiape)) [mg]",Delivered Dose [3] [mg],Fine Particle Fraction [3] [%],Fine Particle Mass [3] [mg],MMAD [3] [μm],Delivered Dose [4] [mg],Fine Particle Fraction [4] [%],Fine Particle Mass [4] [mg],MMAD [4] [μm]
"CCC(=O)OCC(=O)[C@@]1(OC(=O)CC)[C@@H](C)C[C@H]2[C@@H]3CCC4=CC(=O)C=C[C@]4(C)[C@@]3(Cl)[C@@H](O)C[C@@]21C [BDP, beclometasone dipropionate, reference compound]",2.16,2.26,0.87,38.5,,,,,,,,,,,,,,,,
COC(=O)C1=C(C)N(c2cccc(C(F)(F)F)c2)c2n[nH]c(=O)n2[C@@H]1c1ccc(C#N)cc1CC[N+](C)(C)C [CHF 6333],,,,,41.7,0.8,2.09,1.92,77.1,1.18,1.88,1.53,0.81,71.6,0.58,2.15,2.88,73.9,2.13,1.85
